Experiments:
[1] = target: IAS arginase activity; experiment: arginase activity in IAS homogenate; format: biochemical, opossum
Text: (§1) Tissue samples of the opossum internal anal sphincter muscle (IAS), adjoining rectal tissue, liver, and brain were homogenized using an ULTRATURRAX™ tissue homogenizer (Tekamr, Cincinnati, Ohio) in a solution comprising 10 millimolar Tris-HCl, 150 millimolar KCl, and 25 millimolar MnCl2, at pH 7.4. The homogenates were dialyzed overnight against the same solution. Dialyzed homogenates were centrifuged to remove insoluble material and concentrated with Amicon CENTRICON™ 30 microconcentrators to yield stock protein preparations having protein concentrations of 2.4 milligrams per milliliter for IAS smooth muscle, 3.6 milligrams per milliliter for rectal smooth muscle, 3 milligrams per milliliter for brain, and 17.5 milligrams per milliliter for liver. Protein concentrations were estimated with the Pierce Coomassie Protein Reagent kit using bovine serum albumin as a standard.
(§2) Arginase activity in tissue homogenates was evaluated using the radioactive L-[guanidino^14C]arginine assay of Rüegg and Russell (1980, Anal. Biochem. 102:206-212). Assays were performed using a solution comprising 100 millimolar CHES-NaOH and 0.1 millimolar MnCl2 at pH 9.0. The reactions were initiated by addition of 5 microliters of tissue homogenate to 45 microliters of reaction mixture that contained the CHES buffer, the appropriate concentration of arginine (0.5 to 5 millimolar) and about 5.0×10^4 counts per minute of L-[guanidino-^14C]arginine. IAS, rectal muscle, and brain homogenates were incubated with the assay mixture at room temperature for one hour, and the liver sample was incubated for 5 minutes. […] Urea was separated from non-reacted L-[guanidino-^14C]arginine by treatment with 200 μl of 1:1 v/v slurry of DOWEX™ 50W-X8 in water, and quantitated by adding 200 microliters of the supernatant from the DOWEX™ treatment to 3 milliliters of LIQUISCENT™ (National Diagnostics) for liquid scintillation counting in a Beckman LS 5000CE counter. The data were analyzed using double-reciprocal plots of the initial velocity measurements; standard errors were determined by regression analysis. […]

[2] = target: rectum arginase activity; experiment: arginase activity in rectum homogenate; format: biochemical, opossum
Text: as §1
(§3) Arginase activity in tissue homogenates was evaluated using the radioactive L-[guanidino^14C]arginine assay of Rüegg and Russell (1980, Anal. Biochem. 102:206-212). Assays were performed using a solution comprising 100 millimolar CHES-NaOH and 0.1 millimolar MnCl2 at pH 9.0. The reactions were initiated by addition of 5 microliters of tissue homogenate to 45 microliters of reaction mixture that contained the CHES buffer, the appropriate concentration of arginine (0.5 to 5 millimolar) and about 5.0×10^4 counts per minute of L-[guanidino-^14C]arginine. IAS, rectal muscle, and brain homogenates were incubated with the assay mixture at room temperature for one hour, and the liver sample was incubated for 5 minutes. The reactions were stopped by addition of 200 microliters of a stop solution containing 0.25 molar acetic acid, 7 molar urea, and 10 millimolar […] at pH 4.5. Arginase has essentially no activity at the low pH of the stop solution. [^14C] Urea was separated from non-reacted L-[guanidino-^14C]arginine by treatment with 200 μl of 1:1 v/v slurry of DOWEX™ 50W-X8 in water, and quantitated by adding 200 microliters of the supernatant from the DOWEX™ treatment to 3 milliliters of LIQUISCENT™ (National Diagnostics) for liquid scintillation counting in a Beckman LS 5000CE counter. The data were analyzed using double-reciprocal plots of the initial velocity measurements; standard errors were determined by regression analysis.
(§4) Assays in the presence of the inhibitors N^ω-hydroxy-L-arginine (1 to 100 micromolar) and ABHA (0.05 to 100 micromolar) were performed as described above. The amino acid D-ornithine served as a control in these experiments, since this amino acid, unlike L-omithine, is not an inhibitor of arginase.

[3] = target: brain arginase activity; experiment: arginase activity in brain homogenate; format: biochemical, opossum
Text: as §1, §2

[4] = target: T1, arginase (Rattus norvegicus, UniProt P07824); experiment: isothermal titration calorimetry; format: binding; set-up: made in house
T1 sequence (P07824 1-323): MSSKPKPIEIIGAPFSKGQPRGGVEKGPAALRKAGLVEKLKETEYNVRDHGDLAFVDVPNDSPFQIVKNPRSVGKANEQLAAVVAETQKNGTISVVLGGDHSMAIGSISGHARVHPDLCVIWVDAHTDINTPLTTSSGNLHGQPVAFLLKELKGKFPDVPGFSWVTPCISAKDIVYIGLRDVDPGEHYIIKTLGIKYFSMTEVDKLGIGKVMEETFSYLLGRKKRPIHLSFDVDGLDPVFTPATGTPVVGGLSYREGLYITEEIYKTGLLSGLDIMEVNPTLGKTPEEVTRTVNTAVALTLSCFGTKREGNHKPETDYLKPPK
Experimental: All calorimetry experiments were conducted on a MCS isothermal calorimeter from MicroCal, Inc. (Northampton, Mass.). Arginase was exhaustively dialyzed against a solution comprising 100 micromolar MnCl2 and 50 millimolar bicine-NaOH (pH 8.5). […] Prior to the titration experiment, samples were de-gassed under vacuum for 5 minutes. […] The contents of the sample cell were titrated with 30-40 aliquots (2.5 microliters each) of inhibitor (an initial 1 microliters injection was made, but not used in data analysis). After each injection, the heat change was measured and converted to the corresponding enthalpy value. The reaction mixture was continuously stirred at 400 rotations per minute during titration. Control experiments were carried out by titrating the inhibitor into the buffer solution under identical experimental conditions. Data analysis was performed using ORIGIN™ software provided with the instrument. The calorimetric data are presented with the background titrations subtracted from the experimental data. The amount of heat produced per injection was calculated by integration of the area under each peak. The data were fit to the following equation, […]

[5] = target: T2, rat liver arginase (Rattus norvegicus, UniProt P07824); experiment: radioactive L-[guanidino-14C]arginine arginase assay (Example 3); format: biochemical; set-up: made in house; conditions: [14C-guanidino]-L-arginine assay, low inhibitor concentrations, assuming competitive inhibition; read-out: Ki (apparent)
T2 sequence (P07824 1-323): T1 sequence (P07824 1-323)
Experimental: Assays were performed in 100 micromolar MnCl2, 100 millimolar CHES-NaOH (pH 9.0). The reactions were initiated by addition of 5 microliters of a circa 1 unit per milliliter enzyme solution to 45 microliters of reaction mixture containing CHES buffer, 1.4 millimolar L-arginine, about 5.0×10^4 counts per minute of L-[guanidino- ^14C]arginine, and variable concentrations of the appropriate inhibitor. After a 5-15 minute reaction time, 200 microliters of a stop solution containing 7 molar urea, 10 millimolar L-arginine, and 0.25 molar acetic acid (pH 4.5) was added to the reaction (arginase has essentially no activity under these conditions). [^14C]-Urea was separated from non-reacted L-[guanidino-^14 C]arginine by treatment with 200 microliters of a 1:1 (vol/vol) slurry of DOWEX™ 50 W-X8 in water, and quantitated by adding 200 microliters of the supernatant from the DOWEX™ treatment to 3 milliliters of LIQUISCINT™ (National Diagnostics) for liquid scintillation counting in a Beckman LS5000CE counter.

[6] = target: T2, rat liver arginase; experiment: continuous chromogenic arginase assay with substrate 1-nitro-3-guanidinobenzene (compound 18); format: biochemical; set-up: made in house; conditions: 2 millimolar compound 18 as substrate; pseudo-turnover number, smaller = better inhibition
Experimental: The activity of wild-type arginase was monitored spectrophotometrically using a Pharmacia BIOTECH ULTROSPEC™ 2000. Assays were performed in a solution comprising 100 micromolar MnCl2 and 50 millimolar bicine-NaOH (pH 9.0). […] Eadie-Hofstee plots were used to analyze the data.

[7] = target: liver arginase activity; experiment: arginase activity in liver homogenate; format: biochemical, opossum
Text: as §1, §3, §4

## N[C@@H](CCCCB(O)O)C(=O)O [compound 7, 2(S)-amino-6-boronohexanoic acid]
[1]; IAS, read-out: IC50 for inhibition of arginase activity, IAS homogenate
  IC50: 100 nM
[1]; arginine fixed at Km, assuming competitive inhibition, read-out: estimated Ki, IAS arginase activity
  Ki: 50 nM
[2]; arginine fixed at Km, assuming competitive inhibition, read-out: estimated Ki, rectum arginase activity
  Ki: 26 nM
[2]; rectum homogenate
  times more potent than L-HO-Arg, rectum: 840 times
[2]; rectum, read-out: IC50 for inhibition of arginase activity, rectum homogenate
  IC50: 50 nM
[3]; arginine fixed at Km, assuming competitive inhibition, read-out: estimated Ki, brain arginase activity
  Ki: 18 nM
[3]; brain homogenate
  times more potent than L-HO-Arg, brain: 800 times
[4]; 100 micromolar MnCl2, 50 millimolar bicine pH 8.5, 25° C., read-out: Kd determined by titration calorimetry
  Kd: 110 nM
[4]; pH 8.5, 25° C.
  association constant (Ka): 8.89×10^6 inverse molar
  enthalpy change (ΔH) of binding: −12.97 kilocalories per mole
  stoichiometry (n), moles bound per mole of arginase monomer: 1.07
[5]
  Ki: 100 nM
[6]
  tnpseudo (moles of inhibitor/mole of arginase): 0.7 ± 0.1 moles of inhibitor/mole of arginase
[7]; arginine fixed at Km, assuming competitive inhibition, read-out: estimated Ki, liver arginase activity
  Ki: 190 nM
[7]; liver homogenate
  times more potent than L-HO-Arg, liver: 5 times
[7]; liver versus IAS, rectum, brain
  potency against liver arginase activity relative to non-hepatic tissues: more potent inhibitor of non-hepatic than hepatic arginase activities
[7]; liver, read-out: IC50 for inhibition of arginase activity, liver homogenate
  IC50: 440 nM
